Data set [1] in a line: Body weight, PET rat study. The class given is in vivo, Sprague Dawley rats. Conditions: 300 and 1000 mg/kg p.o., subacute; males and females (FIG. 3). The method, then: FIG. 3. […] Individual rat body weights were recorded daily in grams using an Ohaus Navigator™ digital balance.
Male and female Sprague Dawley rats from Charles River were used in these experiments. For the “standard” protocol, a total of 48 rats were used. Twenty-four rats (12 female rats and 12 male rats) were placed in the acute pulmonary function/CNS evaluation arm of the study, and 24 rats (12 female rats and 12 male rats) were placed in the subacute cardiovascular/renal arm of the study. Rats in both arms were further divided into 4 subgroups (3 male rats and 3 female rats) which were dosed with vehicle or compound at dose 1, dose 2; or dose 3. Rats in the pulmonary function/CNS evaluation arm of the study were administered a single dose of vehicle or compound. […]
Rats in the cardiovascular/renal function arm of the study (with telemetry implants) were administered daily doses of vehicle or compound for 5 days. Blood pressure, heart rate and motility were continuously monitored 24 hours/day over four days via telemetry recording. Urine was collected 0-8 and 8-24 hours post-dosing on Days 1 and 4 and assessed for changes in volume output and electrolyte excretion. […]
Cardiovascular function and motility were assessed in conscious freely moving rats using DSI telemetry recording equipment. […] Parameters monitored included blood pressure (BP), heart rate (HR) and activity. […]

In data set [2] the test system is Sprague Dawley rats. The data set is described as follows: Cardiovascular monitoring (blood pressure, heart rate) by DSI telemetry. The class given is in vivo. The method, then:
For the cardiovascular/renal function arm, a Data Sciences International (DSI, St Paul, Minn.) TA11PA-C40 implant was placed in the abdominal aorta of each rat.
Cardiovascular function and motility were assessed in conscious freely moving rats using DSI telemetry recording equipment. On the day of recording, the rats were placed into metabolism cages for simultaneous urine collection. Parameters monitored included blood pressure (BP), heart rate (HR) and activity. Measurements were taken at scheduled intervals (i.e., 10 sec. of data collection once every 2 min. for each rat) over 24 hours. An appropriate baseline period of at least 30 minutes was collected prior to animal dosing. For dosing, rats were briefly removed from their cage, weighed, dosed and returned.
Blood pressure, heart rate and activity were measured for 10 seconds once every 2 minutes for 24 hours. Blood pressure and heart rate were routinely evaluated at baseline, 30 min, 1 h, 2 h, 4 h, 6 h, 8 h, 12 h, 16 h and 20 h post-administration. The last 20 minutes before the start of treatment on Day 1, time-point values were averaged and taken as the baseline value for each rat. The other time-point values were obtained by averaging data 10 minutes prior and 10 minutes post each time-point. […] An analysis of variance was performed with the factors: treatment, animal (according to treatment), time, and treatment time interaction; time incorporated all measurements on the four days. The adjusted mean values post-treatment were compared with baseline. If there was a significant treatment time interaction, tests were performed for comparing the three treatment groups for each time-point. If such a test was significant, the adjusted mean values of the treated group were compared with the concurrent vehicle group for this time-point.

Data set [3] concerns Sprague Dawley rats. The data set is described as follows: Pulmonary function, BUXCO unrestrained whole body plethysmograph. The class given is in vivo. As for the experimental part:
For rats in the pulmonary/CNS arm, pulmonary function (respiratory frequency and tidal volume) was assessed incorporating the BUXCO Unrestrained Whole Body Plethysmograph technique. Rats were placed in a BUXCO chamber, and a 10-minute baseline-recording period was collected. Following the baseline-recording period, the rats were removed from the chambers, orally dosed and returned for a 60-minute period of data collection. At the conclusion of the experiment, the rats were removed from the chambers, and tested for modified Irwin profiling.
The respiratory signal was measured continuously for 10 minutes prior to dosing and […] post-dosing. Respiratory frequency and tidal volume were then extracted from this respiratory signal, and evaluated on a breath-by-breath basis over the course of a one-minute period. These calculated breath-by-breath values for respiratory frequency and tidal volume were averaged over 5-minute segments for the extent of the monitoring period. The time course for these values was then plotted as the mean ±standard deviation for each group studied. An analysis of variance similar to that described above for cardiovascular parameters was also performed.

Data set [4] has as its system Sprague Dawley rats. The class given is in vivo.
Description: Additional CNS monitoring was performed following pulmonary function assessment in that arm of the study. Rats were returned to their home cages and at 65 minutes post-dosing, the rats were placed in Plexiglas observation cylinders. Compound treated rats were systematically compared to vehicle treated rats for behavioral, neurologic and autonomic changes according to a modification of the method described by Irwin. […] The following functions were assessed: increased/decreased motor activity, ataxia, paralysis, tremor, convulsions, abnormal respiration, enhanced salivation, skin color, abnormal feces, death, righting reflex, visual orientation, grip reflex, muscle tone, rectal body temperature, and tail pinch. Body temperatures were also recorded both prior to dosing (baseline) and during modified Irwin testing post-dosing using a Yellow Springs Instruments Telethermometer and rectal probe or equivalent. Following modified Irwin testing, rats were administered anesthesia to effect and blood was collected.
For body temperatures, CBC values, clinical chemistry values, plasma levels and organ weight ratios, means were calculated (±standard deviation or standard error of the mean) and reported where applicable. Statistical evaluations for compound related effects were performed using the Student's t test (paired) and reported as significant if p<0.05.
The test system of data set [5] is Sprague Dawley rats. The data set is described as follows: Renal function monitoring (urine collection in metabolism cages). The class given is in vivo. Conditions: 10 and 30 mg/kg p.o., acute; males and females (FIG. 4).
Description: Renal function monitoring was conducted simultaneously with cardiovascular testing. Urine was collected for 0-8 and 8-24 hour time-points. Prior to telemetry data collection, DSI receivers equipped with special mounting strips were hung upside down on metabolism racks (Lab Products, Maywood, N.J.). Metabolism cages were then suspended from the DSI receivers and assembled to provide for food, water, and urine collection. […] Rats were weighed and placed into the recording metabolism cages for a baseline collection period (i.e., 30 minutes). After baseline, each rat was removed, dosed and returned. Pre-weighed collection tubes were placed under each metabolism cage. At 8 hours, the collection tubes were removed, weighed, and replaced with another set of pre-weighed tubes for the 8-24 hour time-point. At 24 hours, collection tubes were again removed and weighed. Following the 24 hour urine collection, rats were anesthetized and blood was collected.
Renal function was evaluated in the cardiovascular/renal function arm. Urine volume was calculated gravimetrically at each time-point. Urine flow was then calculated by (urine volume/time times or ×100/body weight (g)). Flow values were then plotted as the mean ±standard deviation for each group. […] Statistical significance (p<0.05) was assessed using the paired Student's t test.
In the next data set the test system is Wistar rats. Conditions: 1, 3 or 10 mg/kg p.o., acute.

Take `C[C@]12C=CC(=O)C=C1CC[C@@H]1[C@@H]2[C@@H](O)C[C@@]2(C)[C@H]1CC[C@]2(O)C(=O)CO` [prednisolone]: the Body weight result in data set [1] was “decrease in body weight”. In addition, in the data set on Sprague Dawley rats [2] (300 and 1000 mg/kg p.o.), the “Effects in the CV system” value was “No relevant effects”.

In the case of `C[C@H](N)Cc1ccccc1` [d-amphetamine], the Respiratory frequency result in the data set with Sprague Dawley rats [3] (2 and 8 mg/kg p.o., male and female, acute and subacute dosing (FIG. 1)) is “increased in a dose dependent manner”. Further, the “Overt behavioral effects observed” value in the data set with Sprague Dawley rats [4] (2 and 8 mg/kg p.o., male and female, acute and subacute) is “increased motility, sniffing, rearing, head weaving and vocalization”. In the data set with Sprague Dawley rats [2] (males, 8 mg/kg p.o.), the BP result was “slightly increased” and the HR entry is listed as “slightly increased”.

On to `CN1C(=O)CN=C(c2ccccc2)c2cc(Cl)ccc21` [diazepam], for which the “Effects in the pulmonary system” value in the data set with Sprague Dawley rats [3] (20 and 80 mg/kg p.o.) was “No relevant effects”. Further, the “Modified Irwin profiling” value in the data set with Sprague Dawley rats [4] (rat, in vivo) was “dose dependent effects on motility, coordination, muscle tone and body temperature”. The “Effects in the CV system” value in the data set with Sprague Dawley rats [2] (20 and 80 mg/kg p.o.) is “No relevant effects”.

With `NS(=O)(=O)c1cc(C(=O)O)c(NCc2ccco2)cc1Cl` [furosemide], the Urine output entry in the data set with Sprague Dawley rats [5] is on record as “dose dependently increased”.

As for `COC(=O)C1=C(C)NC(C)=C(C(=O)OC)C1c1ccccc1[N+](=O)[O-]` [nifedipine], in the data set with Wistar rats, the Body temperature result is recorded as “No effects”, the Heart rate entry is “dose dependent increase”, the Motility result was “No effects” and the Respiration result is “No effects”.

For the origin of these results see US20020136691A1, “Pharmacological evaluation test (PET) in animals for continuous assessment of physiological functions” (priority 2000, published 2002).
